Reference: US20070128217A1 (priority 2003, published 2007)

Key:
[1] = tested on: antibodies in sera from SARS patients (sera 1a, 1b, 2, 6, 37, 62, London, SARS-yellow, SARS-green); format: binding, human; parameters: Binding of serum 6 to linear peptides of protein X1 of SARS-CoV Urbani / Binding of serum 37 to linear peptides of protein X1 of SARS-CoV Urbani / Binding of serum 6 to looped/cyclic peptide (PEPSCAN-ELISA) / Binding of serum 37 to looped/cyclic peptide (PEPSCAN-ELISA) / Binding of serum 37 to looped/cyclic peptides of protein X1 of SARS-CoV Urbani / Binding of serum 6 to linear peptides of protein X2 / Binding of serum 37 to linear peptides of protein X2 / Binding of serum 37 to looped/cyclic peptides of protein X2 of SARS-CoV Urbani / Binding of serum 6 to linear peptides of protein M of SARS-CoV Urbani / Binding of serum 37 to linear peptides of protein M of SARS-CoV Urbani / Binding of serum 6 to looped/cyclic peptides of protein M of SARS-CoV Urbani / Binding of serum 37 to looped/cyclic peptides of protein M of SARS-CoV Urbani / Binding of serum 6 to linear peptides of protein X3 of SARS-CoV Urbani / Binding of serum 37 to linear peptides of protein X3 of SARS-CoV Urbani / Binding of serum 37 to looped/cyclic peptides of protein X3 of SARS-CoV Urbani / Binding of serum 6 to linear peptides of protein X4 of SARS-CoV Urbani / Binding of serum 37 to linear peptides of protein X4 of SARS-CoV Urbani / Binding of serum 37 to looped/cyclic peptides of protein X4 of SARS-CoV Urbani / Binding of serum 6 to linear peptides of protein X5 of SARS-CoV Urbani / Binding of serum 37 to linear peptides of protein X5 of SARS-CoV Urbani / Binding of serum 37 to looped/cyclic peptides of protein X5 of SARS-CoV Urbani / Binding of serum 6 to linear peptides of protein N of SARS-CoV Urbani / Binding of serum 37 to linear peptides of protein N of SARS-CoV Urbani / Binding of serum 6 to linear peptide (PEPSCAN-ELISA) / Binding of serum 1a to looped/cyclic peptides of protein N of SARS-CoV Urbani / Binding of serum 1b to looped/cyclic peptides of protein N of SARS-CoV Urbani / Binding of serum 2 to looped/cyclic peptides of protein N of SARS-CoV Urbani / Binding of serum 6 to looped/cyclic peptides of protein N of SARS-CoV Urbani / Binding of serum 37 to looped/cyclic peptides of protein N of SARS-CoV Urbani / Binding of serum 62 to looped/cyclic peptides of protein N of SARS-CoV Urbani / Binding of serum London to looped/cyclic peptides of protein N of SARS-CoV Urbani / Binding of serum SARS-green to looped/cyclic peptides of protein N of SARS-CoV Urbani: unit not given here
[2] = tested on: control sera (pooled serum of ten healthy LUMC hospital workers; commercial negative donor pooled serum from the Dutch bloodbank); format: binding, human; parameters: Binding of Control serum LUMC to linear peptides / Binding of Control serum Blood-bank to linear peptides / Binding of Control serum LUMC to looped peptides / Binding of Control Serum Blood-Bank to Looped peptides / Binding of Control serum LUMC to linear peptides of the protein M of SARS-CoV Urbani / Binding of Control serum Blood-bank to linear peptides of the protein M of SARS-CoV Urbani / Binding of Control serum LUMC to looped peptides of the protein M of SARS-CoV Urbani / Binding of Control Serum Blood-Bank to Looped peptides of the protein M of SARS-CoV Urbani: unit not given here
[3] = tested on: rabbit serum obtained by immunizing a rabbit with the SARS-CoV strain Frankfurt 1; format: binding; parameters: Binding of a rabbit serum to linear peptides / Binding of a rabbit serum to looped peptides / Rabbit serum linear peptides / Rabbit serum looped peptides / Binding of a rabbit serum to linear peptides of protein N of SARS-CoV Urbani (Rabbit serum linear peptides) / Binding of a rabbit serum to looped/cyclic peptides of protein N of SARS-CoV Urbani (Rabbit serum looped peptides): unit not given here
[4] = tested on: recombinant human anti-SARS-CoV antibody 03-018; format: binding; parameters: Binding of antibody 03-018 to linear peptides of the N protein of SARS-CoV Urbani / Binding of antibody 03-018 to looped/cyclic peptides of the N protein of SARS-CoV Urbani: unit not given here

Row | Sequence | Binding of serum 1a to looped/cyclic peptides of protein N of SARS-CoV Urbani [1] | Binding of serum 1b to looped/cyclic peptides of protein N of SARS-CoV Urbani [1] | Binding of serum 2 to looped/cyclic peptides of protein N of SARS-CoV Urbani [1] | Binding of serum 6 to looped/cyclic peptides of protein N of SARS-CoV Urbani [1] | Binding of serum 37 to looped/cyclic peptides of protein N of SARS-CoV Urbani [1] | Binding of serum 62 to looped/cyclic peptides of protein N of SARS-CoV Urbani [1] | Binding of serum London to looped/cyclic peptides of protein N of SARS-CoV Urbani [1] | Binding of serum SARS-green to looped/cyclic peptides of protein N of SARS-CoV Urbani [1] | Binding of serum SARS-yellow to looped/cyclic peptides of protein N of SARS-CoV Urbani [1] | Binding of Control Serum Blood-Bank to Looped peptides [2] | Binding of Control serum Blood-bank to linear peptides [2] | Binding of Control serum LUMC to linear peptides [2] | Binding of Control serum LUMC to looped peptides [2] | Binding of antibody 03-018 to linear peptides of the N protein of SARS-CoV Urbani [4] | Binding of antibody 03-018 to looped/cyclic peptides of the N protein of SARS-CoV Urbani [4] | also measured
1 | GNSPARMASGGGETA | 0.2 | 0.1 | 0.3 | 0.1 | 0.2 | 0.2 | 0.3 | 0.3 | 0.0 | 0.5 | 0.8 | 0.7 | 0.4 | 0.2 | 0.2 | Binding of serum 1a to linear peptide (PEPSCAN-ELISA) [1]: 0.3; Binding of serum 1b to linear peptide (PEPSCAN-ELISA) [1]: 0.1; Binding of serum 2 to linear peptide (PEPSCAN-ELISA) [1]: 0.2; Binding of serum 6 to linear peptide (PEPSCAN-ELISA) [1]: 0.2; Binding of serum 37 to linear peptide (PEPSCAN-ELISA) [1]: 0.6; Binding of serum 62 to linear peptide (PEPSCAN-ELISA) [1]: 0.6; Binding of serum London to linear peptide (PEPSCAN-ELISA) [1]: 0.6; Binding of serum SARS-green to linear peptide (PEPSCAN-ELISA) [1]: 0.2; Binding of serum SARS-yellow to linear peptide (PEPSCAN-ELISA) [1]: 0.5; Binding of a rabbit serum to linear peptides of protein N of SARS-CoV Urbani (Rabbit serum linear peptides) [3]: 0.1; Binding of a rabbit serum to looped/cyclic peptides of protein N of SARS-CoV Urbani (Rabbit serum looped peptides) [3]: 0.0
2 | GPDDQIGYYRRATRR | 0.4 | 0.3 | 0.5 | 0.4 | 0.8 | 0.8 | 0.5 | 0.6 | 0.9 | 0.9 | 0.8 | 0.8 | 0.9 | 0.1 | 0.3 | Binding of serum 1a to linear peptides of protein N of SARS-CoV Urbani [1]: 0.2; Binding of serum 1b to linear peptides of protein N of SARS-CoV Urbani [1]: 0.1; Binding of serum 2 to linear peptides of protein N of SARS-CoV Urbani [1]: 0.2; Binding of serum 6 to linear peptides of protein N of SARS-CoV Urbani [1]: 0.2; Binding of serum 37 to linear peptides of protein N of SARS-CoV Urbani [1]: 0.6; Binding of serum 62 to linear peptides of protein N of SARS-CoV Urbani [1]: 0.6; Binding of serum London to linear peptides of protein N of SARS-CoV Urbani [1]: 0.4; Binding of serum SARS-green to linear peptides of protein N of SARS-CoV Urbani [1]: 0.3; Binding of serum SARS-yellow to linear peptides of protein N of SARS-CoV Urbani [1]: 0.6; Recognition of the peptide by the rabbit serum [3]: recognized
